Read-outs that look alike come from different tables or passages of the source.
What was measured:
[1] = tested on: P. aeruginosa
[2] = tested on: E. coli; assay: MIC in the presence of a fixed concentration (2 μg/mL) of Rifampicin; assay type: cell-based, Escherichia coli; settings: Rifampicin 2 μg/mL, Table 5D
[3] = tested on: A. baumannii; assay: MIC in the presence of […] of rifampicin; assay type: cell-based, Acinetobacter baumannii; settings: for MIC in combination with Rifampicin, A. baumannii ATCC BAA-747: A. baumannii ATCC BAA-747, Table 5D; for MIC in combination with Rifampicin, A. baumannii NCTC 13424: A. baumannii NCTC 13424, Table 5D
Description: (§1) The inoculum was prepared by making a direct suspension of isolated colonies (selected from an 18-24 hour Mueller-Hinton agar plate) adjusted to the 0.5 McFarland standard. […] The assays were performed in duplicate. […] In cases where the duplicate values varied by less than 2-fold, the lower of the two values is reported. If a variation of greater than 2-fold was observed, the assay was considered non-valid. Several of the compounds were subjected to multiple tests, and where this is the case, the MIC reflects the modal value obtained.

[4] = tested on: A. baumannii
[5] = tested on: K. pneumoniae
[6] = tested on: E. coli
[7] = tested on: K. pneumoniae; assay: MIC in the presence of a fixed concentration (2 μg/mL) of Rifampicin; assay type: cell-based, Klebsiella pneumoniae; settings: Rifampicin 2 μg/mL, Table 5D
Description: as §1

[8] = tested on: E. coli strains with elevated MICs to Polymyxin B; assay: MIC against strains with elevated MICs to Polymyxin B; assay type: cell-based, Escherichia coli; settings: Table 6D; for MIC E. coli 058: strain 058, elevated MIC to Polymyxin B; for MIC E. coli 059: strain 059, elevated MIC to Polymyxin B; for MIC E. coli 060: strain 060, elevated MIC to Polymyxin B; for MIC E. coli 061: strain 061, elevated MIC to Polymyxin B
Summary of the method: (§2)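 Colonies picked from an 18-24 hour Mueller-Hinton agar plate are suspended directly and adjusted to 0.5 McFarland. Each MIC is run in duplicate. Values within 2-fold give the lower one; wider spread voids the assay; repeated testing yields the modal value.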

[9] = tested on: A. baumanii strains with elevated MICs to Polymyxin B; assay: as above; assay type: cell-based, Acinetobacter baumannii; settings: Table 6D; for MIC A. baumannii 053: strain 053, elevated MIC to Polymyxin B; for MIC A. baumannii 056: strain 056, elevated MIC to Polymyxin B; for MIC A. baumannii 068: strain 068, elevated MIC to Polymyxin B; for MIC A. baumannii 070: strain 070, elevated MIC to Polymyxin B
Summary of the method: as §2

[10] = tested on: K. pneumoniae strains with elevated MICs to Polymyxin B; assay: as above; assay type: cell-based, Klebsiella pneumoniae; settings: Table 6D; for MIC K. pneumoniae 062: strain 062, elevated MIC to Polymyxin B; for MIC K. pneumoniae 063: strain 063, elevated MIC to Polymyxin B; for MIC K. pneumoniae 064: strain 064, elevated MIC to Polymyxin B; for MIC K. pneumoniae 655: strain 655, elevated MIC to Polymyxin B
Summary of the method: as §2

[11] = tested on: P. aeruginosa strains with elevated MICs to Polymyxin B; assay: as above; assay type: cell-based, Pseudomonas aeruginosa; settings: Table 6D; for MIC P. aeruginosa 065: strain 065, elevated MIC to Polymyxin B; for MIC P. aeruginosa 066: strain 066, elevated MIC to Polymyxin B; for MIC P. aeruginosa 067: strain 067, elevated MIC to Polymyxin B
Summary of the method: as §2

[12] = absence of a second agent, Table 6B

(5-Phenyl-piperidine)- 3-carbonyl polymyxin B nonapeptide [Example D7]
MIC, P. aeruginosa ATCC 27853 [1, 12]: 2 micrograms/mL | MIC, P. aeruginosa CCUG 59347 [1, 12]: >8 micrograms/mL | MIC in combination with Rifampicin, E. coli ATCC 25922 [2]: 0.06 micrograms/mL | MIC in combination with Rifampicin, E. coli NCTC 13441 [2]: 0.5 micrograms/mL | MIC in combination with Rifampicin, A. baumannii ATCC BAA-747 [3]: 1 micrograms/mL | MIC in combination with Rifampicin, A. baumannii NCTC 13424 [3]: 0.03 micrograms/mL | MIC, A. baumannii ATCC BAA-747 [4, 12]: >8 micrograms/mL | MIC, A. baumannii NCTC 13424 [4, 12]: >8 micrograms/mL | MIC, K. pneumoniae ATCC 4352 [5, 12]: 8 micrograms/mL | MIC, K. pneumoniae ATCC BAA-2146 [5, 12]: >8 micrograms/mL | MIC, E. coli ATCC 25922 [6, 12]: >8 micrograms/mL | MIC, E. coli NCTC 13441 [6, 12]: >8 micrograms/mL | MIC in combination with Rifampicin, K. pneumoniae ATCC 4352 [7]: 0.125 micrograms/mL | MIC in combination with Rifampicin, K. pneumoniae ATCC BAA-2146 [7]: 0.5 micrograms/mL

(5-Phenyl-piperidine)- 3-carbonyl polymyxin B nonapeptide [Example D8]
MIC, P. aeruginosa ATCC 27853 [1, 12]: 0.5 micrograms/mL | MIC, P. aeruginosa CCUG 59347 [1, 12]: 1 micrograms/mL | MIC in combination with Rifampicin, E. coli ATCC 25922 [2]: ≤0.015 micrograms/mL | MIC in combination with Rifampicin, A. baumannii ATCC BAA-747 [3]: 0.03 micrograms/mL | MIC in combination with Rifampicin, A. baumannii NCTC 13424 [3]: ≤0.015 micrograms/mL | MIC, A. baumannii ATCC BAA-747 [4, 12]: 0.25 micrograms/mL | MIC, A. baumannii NCTC 13424 [4, 12]: 0.5 micrograms/mL | MIC, K. pneumoniae ATCC 4352 [5, 12]: 0.125 micrograms/mL | MIC, K. pneumoniae ATCC BAA-2146 [5, 12]: 0.5 micrograms/mL | MIC, E. coli ATCC 25922 [6, 12]: 0.125 micrograms/mL | MIC, E. coli NCTC 13441 [6, 12]: 0.25 micrograms/mL | MIC in combination with Rifampicin, K. pneumoniae ATCC 4352 [7]: 0.03 micrograms/mL | MIC in combination with Rifampicin, K. pneumoniae ATCC BAA-2146 [7]: 0.06 micrograms/mL

(cis-5-cyclohexyl- piperidine)-3-carbonyl polymyxin B nonapeptide [Example D10]
MIC, P. aeruginosa ATCC 27853 [1, 12]: 1 micrograms/mL | MIC, P. aeruginosa CCUG 59347 [1, 12]: 2 micrograms/mL | MIC in combination with Rifampicin, E. coli NCTC 13441 [2]: 0.5 micrograms/mL | MIC in combination with Rifampicin, A. baumannii ATCC BAA-747 [3]: 0.5 micrograms/mL | MIC in combination with Rifampicin, A. baumannii NCTC 13424 [3]: ≤0.015 micrograms/mL | MIC, A. baumannii ATCC BAA-747 [4, 12]: >8 micrograms/mL | MIC, A. baumannii NCTC 13424 [4, 12]: 8 micrograms/mL | MIC, K. pneumoniae ATCC 4352 [5, 12]: 8 micrograms/mL | MIC, K. pneumoniae ATCC BAA-2146 [5, 12]: >8 micrograms/mL | MIC, E. coli ATCC 25922 [6, 12]: 4 micrograms/mL | MIC, E. coli NCTC 13441 [6, 12]: 4 micrograms/mL | MIC in combination with Rifampicin, K. pneumoniae ATCC 4352 [7]: 0.125 micrograms/mL | MIC in combination with Rifampicin, K. pneumoniae ATCC BAA-2146 [7]: 0.25 micrograms/mL

trans-4- octylpyrrolidine- 3-carbonyl L-Thr- L-Dap-polymyxin B heptapeptide [Example D89]
MIC, P. aeruginosa ATCC 27853 ([1]; sole activity, Table 6C): 0.5 micrograms/mL | MIC, P. aeruginosa CCUG 59347 ([1]; sole activity, Table 6C): 1 micrograms/mL | MIC E. coli 058 [8]: 1 micrograms/mL | MIC E. coli 059 [8]: 1 micrograms/mL | MIC E. coli 060 [8]: 0.5 micrograms/mL | MIC E. coli 061 [8]: 2 micrograms/mL | MIC, A. baumannii ATCC BAA-747 ([4]; sole activity, Table 6C): 0.5 micrograms/mL | MIC, A. baumannii NCTC 13424 ([4]; sole activity, Table 6C): 0.5 micrograms/mL | MIC, K. pneumoniae ATCC BAA-2146 ([5]; sole activity, Table 6C): 0.5 micrograms/mL | MIC A. baumannii 053 [9]: 8 micrograms/mL | MIC A. baumannii 056 [9]: 4 micrograms/mL | MIC A. baumannii 068 [9]: 0.5 micrograms/mL | MIC A. baumannii 070 [9]: 0.5 micrograms/mL | MIC K. pneumoniae 062 [10]: 8 micrograms/mL | MIC K. pneumoniae 063 [10]: 4 micrograms/mL | MIC K. pneumoniae 064 [10]: 1 micrograms/mL | MIC K. pneumoniae 655 [10]: 8 micrograms/mL | MIC P. aeruginosa 065 [11]: 0.5 micrograms/mL | MIC P. aeruginosa 066 [11]: 1 micrograms/mL | MIC P. aeruginosa 067 [11]: 16 micrograms/mL | MIC, E. coli ATCC 25922 ([6]; sole activity, Table 6C): 0.5 micrograms/mL | MIC, E. coli NCTC 13441 ([6]; sole activity, Table 6C): 0.125 micrograms/mL

trans-5- cyclohexyl- piperidine-3- carbonyl L-Thr-L- Dap-polymyxin E heptapeptide [Example D86]
MIC, P. aeruginosa ATCC 27853 ([1]; sole activity, Table 6C): 0.25 micrograms/mL | MIC, P. aeruginosa CCUG 59347 ([1]; sole activity, Table 6C): 0.5 micrograms/mL | MIC E. coli 058 [8]: 0.5 micrograms/mL | MIC E. coli 059 [8]: 1 micrograms/mL | MIC E. coli 060 [8]: 1 micrograms/mL | MIC E. coli 061 [8]: 4 micrograms/mL | MIC, A. baumannii ATCC BAA-747 ([4]; sole activity, Table 6C): 0.03 micrograms/mL | MIC, A. baumannii NCTC 13424 ([4]; sole activity, Table 6C): 0.06 micrograms/mL | MIC, K. pneumoniae ATCC 4352 ([5]; sole activity, Table 6C): 0.03 micrograms/mL | MIC A. baumannii 053 [9]: 16 micrograms/mL | MIC A. baumannii 056 [9]: 50.25 micrograms/mL | MIC A. baumannii 068 [9]: 1 micrograms/mL | MIC A. baumannii 070 [9]: 2 micrograms/mL | MIC K. pneumoniae 062 [10]: 1 micrograms/mL | MIC K. pneumoniae 063 [10]: 8 micrograms/mL | MIC K. pneumoniae 064 [10]: 1 micrograms/mL | MIC K. pneumoniae 655 [10]: 4 micrograms/mL | MIC P. aeruginosa 065 [11]: 0.5 micrograms/mL | MIC P. aeruginosa 066 [11]: 0.25 micrograms/mL | MIC P. aeruginosa 067 [11]: 32 micrograms/mL | MIC, E. coli ATCC 25922 ([6]; sole activity, Table 6C): 0.125 micrograms/mL

trans-5-phenyl- piperidine-3- carbonyl L-Thr-L- Dap-polymyxin B heptapeptide [Example D84]
MIC, P. aeruginosa ATCC 27853 ([1]; sole activity, Table 6C): 0.5 micrograms/mL | MIC, P. aeruginosa CCUG 59347 ([1]; sole activity, Table 6C): 0.5 micrograms/mL | MIC E. coli 058 [8]: 4 micrograms/mL | MIC E. coli 059 [8]: 8 micrograms/mL | MIC E. coli 060 [8]: 4 micrograms/mL | MIC E. coli 061 [8]: 8 micrograms/mL | MIC, A. baumannii ATCC BAA-747 ([4]; sole activity, Table 6C): 0.06 micrograms/mL | MIC, A. baumannii NCTC 13424 ([4]; sole activity, Table 6C): 0.25 micrograms/mL | MIC, K. pneumoniae ATCC 4352 ([5]; sole activity, Table 6C): 0.125 micrograms/mL | MIC A. baumannii 053 [9]: >64 micrograms/mL | MIC A. baumannii 056 [9]: 32 micrograms/mL | MIC A. baumannii 068 [9]: 8 micrograms/mL | MIC A. baumannii 070 [9]: 16 micrograms/mL | MIC K. pneumoniae 062 [10]: >64 micrograms/mL | MIC K. pneumoniae 063 [10]: 32 micrograms/mL | MIC K. pneumoniae 064 [10]: 8 micrograms/mL | MIC K. pneumoniae 655 [10]: 16 micrograms/mL | MIC P. aeruginosa 065 [11]: 8 micrograms/mL | MIC P. aeruginosa 066 [11]: 2 micrograms/mL | MIC P. aeruginosa 067 [11]: >64 micrograms/mL | MIC, E. coli ATCC 25922 ([6]; sole activity, Table 6C): 0.25 micrograms/mL | MIC, E. coli NCTC 13441 ([6]; sole activity, Table 6C): 0.06 micrograms/mL

Reference: US20210221848A1, “POLYMYXIN DERIVATIVES AND THEIR USE IN COMBINATION THERAPY TOGETHER WITH DIFFERENT ANTIBIOTICS” (priority 2014, published 2021)
